According to US8829030B2 (priority 2002, dated 2014):

Molecular target: recombinant HCV RNA-dependent RNA polymerase (NS5B protein) (Hepatitis C virus genotype 1b, UniProt P26663)
Test: biochemical
Design: species or system HCV-Bk strain
Details: not given

Chain of recombinant HCV RNA-dependent RNA polymerase (NS5B protein) (P26663 2420-3010 limits assumed): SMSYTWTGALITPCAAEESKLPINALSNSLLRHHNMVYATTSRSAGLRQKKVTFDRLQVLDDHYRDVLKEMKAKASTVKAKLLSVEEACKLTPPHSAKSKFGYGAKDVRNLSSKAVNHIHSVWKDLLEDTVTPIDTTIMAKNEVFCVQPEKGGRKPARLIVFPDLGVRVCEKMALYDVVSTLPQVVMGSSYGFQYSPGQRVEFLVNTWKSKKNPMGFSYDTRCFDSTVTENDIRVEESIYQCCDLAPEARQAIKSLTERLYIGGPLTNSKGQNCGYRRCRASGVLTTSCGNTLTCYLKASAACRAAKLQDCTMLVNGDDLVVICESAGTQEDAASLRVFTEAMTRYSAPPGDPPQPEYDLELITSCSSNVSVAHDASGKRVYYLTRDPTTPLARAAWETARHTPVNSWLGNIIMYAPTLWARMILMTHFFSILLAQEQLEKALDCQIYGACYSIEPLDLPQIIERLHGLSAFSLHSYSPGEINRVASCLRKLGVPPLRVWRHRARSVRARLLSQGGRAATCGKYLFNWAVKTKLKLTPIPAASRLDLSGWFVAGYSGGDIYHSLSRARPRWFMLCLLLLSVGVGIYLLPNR

| SMILES | IC50 [µM] |
| --- | --- |
| CC1CCC(C(=O)N(c2cc(-c3ccccc3)sc2C(=O)O)C2CCCNCC2)CC1 (stereo not shown) [Compound 6, 3-[azepan-4-yl-(4-methyl-cyclohexanecarbonyl)-amino]-5-phenyl-thiophene-2-carboxylic acid] | < 5 |
| CC1CCC(C(=O)N(c2cc(-c3ccccc3)sc2C(=O)O)C(C)CN)CC1 (stereo not shown) [Compound 36, 3-[(2-amino-1-methyl-ethyl)-(4-methyl-cyclohexanecarbonyl)-amino]-5-phenyl-thiophene-2-carboxylic acid] | < 5 |
| CC1CCC(C(=O)N(c2cc(-c3ccccc3)sc2C(=O)O)C2CCC(=NO)CC2)CC1 (stereo not shown) [Compound 16, 3-[(4-hydroxyimino-cyclohexyl)-(4-methyl-cyclohexanecarbonyl)-amino]-5-phenyl-thiophene-2-carboxylic acid] | < 5 |
| CC1(O)CCC(N(c2cc(-c3ccccc3)sc2C(=O)O)C(=O)[C@H]2CC[C@@H](C)CC2)CC1 (relative stereo) [Compound 86, cis-3-[(4-Hydroxy-4-methyl-cyclohexyl)-(4-methyl-cyclohexanecarbonyl)-amino]-5-phenyl-thiophene-2-carboxylic acid] | < 5 |
| C[C@H]1CC[C@H](C(=O)N(c2cc(-c3ccc(F)cc3)sc2C(=O)O)[C@H]2CC[C@@H](O)CC2)CC1 [Compound 73, 5-(4-fluoro-phenyl)-3-[(4-hydroxy-cyclohexyl)-(4-methyl-cyclohexanecarbonyl)-amino]-thiophene-2-carboxylic acid] | < 5 |
| C=C1CCC(C(=O)N(c2cc(-c3ccccc3)sc2C(=O)O)C(C)C)CC1 [Compound 28, 3-[isopropyl-(4-methylene-cyclohexanecarbonyl)-amino]-5-phenyl-thiophene-2-carboxylic acid] | < 5 |
| C[C@H]1CC[C@H](C(=O)N(c2cc(-c3ccccc3)sc2C(=O)O)C2CC[S+]([O-])CC2)CC1 (relative stereo) [Compound 68, 3-[(trans-4-Methyl-cyclohexanecarbonyl)-(1-oxo-tetrahydro-thiopyran-4-yl)-amino]-5-phenyl-thiophene-2-carboxylic acid] | < 5 |
| CC(=O)NC1CC(C)CCC1C(=O)N(c1cc(-c2ccccc2)sc1C(=O)O)C(C)C (stereo not shown) [Compound 12, 3-[(2-acetylamino-4-methyl-cyclohexanecarbonyl)-isopropyl-amino]-5-phenyl-thiophene-2-carboxylic acid] | 5 to 20 |
| C[C@H]1CC[C@H](C(=O)N(c2cc(-c3ccccc3)sc2C(=O)O)[C@H]2CC[C@@H](O)CC2)CC1 [Compound 47, 3-[(4-methyl-cyclohexanecarbonyl)-(4-hydroxy-cyclohexyl)-amino]-5-phenyl-thiophene-2-carboxylic acid] | < 5 |
| CC(=O)c1ccc(-c2cc(N(C(=O)[C@H]3CC[C@H](C)CC3)[C@H]3CC[C@H](O)CC3)c(C(=O)O)s2)cc1 [Compound 85, 5-(4-acetyl-phenyl)-3-[(4-hydroxy-cyclohexyl)-(4-methyl-cyclohexanecarbonyl)-amino]-thiophene-2-carboxylic acid] | < 5 |
| CC(C)N(C(=O)[C@@H]1CC[C@@H](C)C[C@@H]1O)c1cc(-c2ccc(F)cc2)sc1C(=O)O [Compound 24] | < 5 |
| CC1CCC(C(=O)N(Cc2ccncc2)c2cc(-c3ccccc3)sc2C(=O)O)CC1 (stereo not shown) [Compound 4, 3-[(4-methyl-cyclohexanecarbonyl)-pyridin-4-ylmethyl-amino]-5-phenyl-thiophene-2-carboxylic acid] | < 5 |
| CN(C)N(C(=O)c1ccc(Cl)cc1Cl)c1cc(-c2ccccc2)sc1C(=O)O [Compound 72, 3-[n-(2,4-dichloro-benzoyl)-N′,N′-dimethyl-hydrazino]-5-phenyl-thiophene-2-carboxylic acid] | < 5 |
| CC1CCC(C(=O)N(c2cc(-c3ccccc3)sc2C(=O)O)N(C)C)CC1 (stereo not shown) [Compound 64, 3-[N′,N′-dimethyl-n-(4-methyl-cyclohexanecarbonyl)-hydrazino]-5-phenyl-thiophene-2-carboxylic acid] | < 5 |
| CC1CCC(C(=O)N(CC2CCN(C)CC2)c2cc(-c3ccccc3)sc2C(=O)O)CC1 (stereo not shown) [Compound 38, 4-{[(2-carboxy-5-phenyl-thiophen-3-yl)-(4-methyl-cyclohexanecarbonyl)-amino]-methyl}-1-methyl-piperidinium chloride] | < 5 |
| C[C@H]1CC[C@H](C(=O)N(c2cc(-c3ccccc3)sc2C(=O)O)[C@H]2CC[C@H](O)C2)CC1 [Compound 90, 3-[(3-hydroxy-cyclopentyl)-(4-methyl-cyclohexanecarbonyl)-amino]-5-phenyl-thiophe-2-carboxylic acid] | < 5 |
| CC1CCC(C(=O)N(c2cc(-c3ccccc3)sc2C(=O)O)C2CCC[NH+](C)CC2)CC1 (stereo not shown) [Compound 49, 4-[(2-carboxy-5-phenyl-thiophen-3-yl)-(4-methyl-cyclohexanecarbonyl)-amino]-1-methyl-azepanium chloride] | < 5 |
| CO[C@H]1CC[C@H](N(c2cc(-c3ccccc3)sc2C(=O)O)C(=O)[C@H]2CC[C@H](C)CC2)CC1 [Compound 46, 3-[(4-methoxy-cyclohexyl)-(4-methyl-cyclohexanecarbonyl)-amino]-5-phenyl-thiophene-2-carboxylic acid] | < 5 |
| CC1=CCC(C(=O)N(c2cc(-c3ccccc3)sc2C(=O)O)C(C)C)OC1 (stereo not shown) [Compound 30, 3-[isopropyl-(5-methyl-3,6-dihydro-2H-pyran-2-carbonyl)-amino]-5-phenyl-thiophene-2-carboxylic acid] | < 5 |
| C[C@H]1CC[C@H](C(=O)N(c2cc(-c3ccccc3)sc2C(=O)O)[C@H]2CC[C@H](O)CC2)CC1 [Compound 15, 3-[(trans-4-Hydroxy-cyclohexyl)-(trans-4-methyl-cyclohexanecarbonyl)-amino]-5-phenyl-thiophene-2-carboxylic acid] | < 5 |
| CC1CCC(C(=O)N(CC2OCCO2)c2cc(-c3ccccc3)sc2C(=O)O)CC1 (stereo not shown) [Compound 8, 3-[[1,3]dioxolan-2-ylmethyl-(4-methyl-cyclohexanecarbonyl)-amino]-5-phenyl-thiophene-2-carboxylic acid] | < 5 |
| CC1CCC(C(=O)N(c2cc(-c3ccccc3)sc2C(=O)O)[C@H]2CC[C@H](C(=O)O)CC2)CC1 (stereo partly shown) [Compound 76, 3-[(4-carboxy-cyclohexyl)-(4-methyl-cyclohexanecarbonyl)-amino]-5-phenyl-thiophene-2-carboxylic acid] | < 5 |
| C[C@H]1CC[C@H](C(=O)N(c2cc(-c3ccccc3)sc2C(=O)O)[C@H]2CCC[C@H](O)C2)CC1 (stereo in doubt) [Compound 89, 3-[(3-hydroxy-cyclohexyl)-(4-methyl-cyclohexanecarbonyl)-amino]-5-phenyl-thiophene-2-carboxylic acid] | < 5 |
| O=C(O)c1sc(-c2ccccc2)cc1N(CC1OCCO1)C(=O)c1ccc(Cl)cc1Cl [Compound 7, 3-[(2,4-dichloro-benzoyl)-[1,3]dioxolan-2-ylmethyl-amino]-5-phenyl-thiophene-2-carboxylic acid] | < 5 |
| C[C@H]1CC[C@H](C(=O)N(c2cc(-c3ccc(F)c(F)c3)sc2C(=O)O)[C@H]2CC[C@H](O)CC2)CC1 [Compound 79, 5-(3,4-difluoro-phenyl)-3-[(4-hydroxy-cyclohexyl)-(4-methyl-cyclohexanecarbonyl)-amino]-thiophene-2-carboxylic acid] | < 5 |
| CC1COC(C(=O)N(c2cc(-c3ccccc3)sc2C(=O)O)C(C)C)OC1 (stereo not shown) [Compound 22, 3-[isopropyl-(5-methyl-[1,3]dioxane-2-carbonyl)-amino]-5-phenyl-thiophene-2-carboxylic acid] | 5 to 20 |
| CC1CCC(C(=O)N(CC2CCCCN2)c2cc(-c3ccccc3)sc2C(=O)O)CC1 (stereo not shown) [Compound 2, 2-{[(2-carboxy-5-phenyl-thiophen-3-yl)-(4-methyl-cyclohexanecarbonyl)-amino]-methyl}-piperidinium; trifluoro-acetate] | < 5 |
| C[C@H]1CC[C@H](C(=O)N(c2cc(-c3ccccc3)sc2C(=O)O)[C@H]2CC[C@](C)(O)CC2)CC1 [Compound 88, 3-[(4-hydroxy-4-methyl-cyclohexyl)-(4-methyl-cyclohexanecarbonyl)-amino]-5-phenyl-thiophene-2-carboxylic acid] | < 5 |
| CC(C)N(C(=O)[C@H]1CC[C@H](C)CO1)c1cc(-c2ccccc2)sc1C(=O)O (relative stereo) [Compound 27, 3-[Isopropyl-(trans-5-methyl-tetrahydro-pyran-2-carbonyl)-amino]-5-phenyl-thiophene-2-carboxylic acid] | < 5 |

Same assay, conditions: read-out: Activity (polymerase activity, IC50)

| SMILES | IC50 [µM] |
| --- | --- |
| CC1CCC(C(=O)N(c2cc(-c3ccccc3)sc2C(=O)O)C2CCNC(=O)CC2)CC1 (stereo not shown) [Compound 82, 3-[(4-methyl-cyclohexanecarbonyl)-(7-oxo-azepan-4-yl)-amino]-5-phenyl-thiophene-2-carboxylic acid] | < 5 |
| CC1CCC(C(=O)N(c2cc(-c3ccccc3)sc2C(=O)O)C2CCN(C(=O)C(N)=O)CC2)CC1 (stereo not shown) [Compound 83, 3-[(1-aminooxalyl-piperidin-4-yl)-(4-methyl-cyclohexanecarbonyl)-amino]-5-phenyl-thiophene-2-carboxylic acid] | < 5 |
| CNC(=O)N1CCC(N(C(=O)C2CCC(C)CC2)c2cc(-c3ccccc3)sc2C(=O)O)CC1 (stereo not shown) [Compound 74, 3-[(1-methylcarbamoyl-piperidin-4-yl)-(4-methyl-cyclohexanecarbonyl)-amino]-5-phenyl-thiophene-2-carboxylic acid] | < 5 |
| CC1CCC(C(=O)N(c2cc(-c3ccccc3)sc2C(=O)O)C(C)CN=[N+]=[N-])CC1 (stereo not shown) [Compound 43, 3-[(2-azido-1-methyl-ethyl)-(4-methyl-cyclohexanecarbonyl)-amino]-5-phenyl-thiophene-2-carboxylic acid] | < 5 |
| CC1CCC(C(=O)N(c2cc(-c3cccc(F)c3)sc2C(=O)O)C(C)C)CC1 (stereo not shown) [Compound 5, 5-(3-fluoro-phenyl)-3-[isopropyl-(4-methyl-cyclohexanecarbonyl)-amino]-thiophene-2-carboxylic acid] | < 5 |
